For the assay, the system named is murine CD45+CD4+CD25+ Tregs. The assay can be described thus: Treg suppression assay: pre-treated Tregs co-cultured with CFSE-labeled effector T cells, flow cytometry. To be noted: Tregs pre-treated 10 nM for 3 hours, 1:4 ratio, 4 days. The assay is classed as cell-based, mouse. As to the method: Murine CD45+CD4+CD25+ Tregs and CD45+CD4+CD25− effector T cells were isolated from healthy mice using a StemCell mouse Treg Isolation Kit (StemCell Technologies, Cambridge, MA). The cells were used in two different assays.
First, Tregs that were either pre-treated with 10 nM TLR7-1A agonist for 3 hours or left untreated were co-cultured with CFSE-labeled effector T cells at 1:4 ratio, with or without CD3/CD28 activation beads. Incubation proceeded for 4 days before flow cytometry analysis.

The text below walks through data of patent US20250222117A1, “COMPOUND COMPRISING RALTITREXED OR 5-MTHF LINKED TO A THERAPEUTIC AGENT, COMPOSITION, AND METHOD OF USE” (PURDUE RESEARCH FOUNDATION, priority 2022, published 2025).

In the case of `CCCCc1nc2c(N)nc3ccccc3c2n1CC(C)(C)CO` [TLR7-1A agonist, 3-(4-amino-2-butyl-1H-imidazo[4,5-c]quinolin-1-yl)-2,2-dimethylpropan-1-ol], the “effect on Treg suppression of CD4+ T cell proliferation” value is “reversed the suppressive activity”.
